Measured values: patent publication US6211156A (priority 1999, dated 2001)

System: male rats
Conditions: rat, in vivo

| Compound | effect on penile erections induced by 2 μg of the test peptides into the PVN | effect on test peptide induced penile erection | also measured |
| --- | --- | --- | --- |
| COC(=O)[C@@H](N)CCCNC(=N)N[N+](=O)[O-] [L-NAME, N^G -nitro-1-arginine methyl ester] | reduced in a dose dependent manner |  |  |
| C[C@]12N[C@H](Cc3ccccc31)c1ccccc12 [MK 801, dizolcipine] |  | did not modify the penile erection |  |
| OCCN1CCN(CC/C=C2/c3ccccc3Sc3ccc(C(F)(F)F)cc32)CC1 [cis-flupenthixol] |  | did not modify the penile erection |  |
| CN1CC[C@]23c4c5ccc(O)c4O[C@H]2[C@@H](O)C=C[C@H]3[C@H]1C5 [morphine] | reduced in a dose-dependent manner |  |  |
| ω-conotoxin-GVIA |  |  | effect on penile erection induced by 2 μg of the test peptides into the PVN: reduced penile erection |
